pIC50: −log10 of the molar value.
Test system: 636577-100-R-J1-PDC complex spheroid viability
Assay: Anticancer human tumor 636577-100-R-J1-PDC patient-derived endometrial adenocarcinoma cell line growth inhibition [GQUAD]
Conditions: for pIC50: curve of first compound; for viability, T/C: stronger effect = lower value; active means viability on the fitted dose curve at most 10% of control; inactive means the rest
Procedure, shortened: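 Tumor cells were grown as complex spheroids with HUVEC endothelial cells and mesenchymal stem cells as stroma. G-quadruplex stabilizers were combined with targeted agents over half-log dilutions from near the clinical Cmax, or from 10 microM.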

[1] = second compound 0.0316 µM, first compound 0.0316 µM
[2] = second compound 0.0316 µM, first compound 0.1 µM
[3] = second compound 0.0316 µM, first compound 0.316 µM
[4] = second compound 0.0316 µM, first compound 1 µM
[5] = second compound 0.0316 µM, first compound 3.16 µM
[6] = second compound 0.0316 µM, first compound 10 µM
[7] = second compound 0.1 µM, first compound 0.0316 µM
[8] = second compound 0.1 µM, first compound 0.1 µM
[9] = second compound 0.1 µM, first compound 0.316 µM
[10] = second compound 0.1 µM, first compound 1 µM
[11] = second compound 0.1 µM, first compound 3.16 µM
[12] = second compound 0.1 µM, first compound 10 µM
[13] = second compound 0.316 µM, first compound 0.0316 µM
[14] = second compound 0.316 µM, first compound 0.1 µM
[15] = second compound 0.316 µM, first compound 0.316 µM
[16] = second compound 0.316 µM, first compound 1 µM
[17] = second compound 0.316 µM, first compound 3.16 µM
[18] = second compound 0.316 µM, first compound 10 µM
[19] = second compound 1 µM, first compound 0.0316 µM
[20] = second compound 1 µM, first compound 0.1 µM
[21] = second compound 1 µM, first compound 0.316 µM
[22] = second compound 1 µM, first compound 1 µM
[23] = second compound 1 µM, first compound 3.16 µM
[24] = second compound 1 µM, first compound 10 µM
[25] = second compound 3.16 µM, first compound 0.0316 µM
[26] = second compound 3.16 µM, first compound 0.1 µM
[27] = second compound 3.16 µM, first compound 0.316 µM
[28] = second compound 3.16 µM, first compound 1 µM
[29] = second compound 3.16 µM, first compound 3.16 µM
[30] = second compound 3.16 µM, first compound 10 µM
[31] = second compound 10 µM, first compound 0.0316 µM
[32] = second compound 10 µM, first compound 0.1 µM
[33] = second compound 10 µM, first compound 0.316 µM
[34] = second compound 10 µM, first compound 1 µM
[35] = second compound 10 µM, first compound 3.16 µM
[36] = second compound 10 µM, first compound 10 µM
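Further: viability read after seven days of drug exposure.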
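Wherever viability, T/C is given: luminescence signal used as a proxy for viable cells; 100% = DMSO vehicle control wells.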

COc1cc(C2c3cc4c(cc3C(OC3OC5COC(C)OC5C(O)C3O)C3COC(=O)C23)OCO4)cc(OC)c1O (stereo unspecified) + CN(C)c1ccc(Nc2c3ccc(NC(=O)CCN4CCCC4)cc3nc3cc(NC(=O)CCN4CCCC4)ccc23)cc1
7.19: pIC50 (second compound 0.0316 µM)
> 7.50: pIC50 (second compound 3.16 µM) | pIC50 (second compound 10 µM)
active: viability, T/C [31] 5.34% | viability, T/C [32] 4.62% | viability, T/C [33] 4.08% | viability, T/C [34] 4.02% | viability, T/C [35] 2.93% | viability, T/C [36] 2.35%
inactive: viability, T/C [1] 77.5% | viability, T/C [2] 33.3% | viability, T/C [3] 20.7% | viability, T/C [4] 17.2% | viability, T/C [5] 15.7% | viability, T/C [6] 13.8% | viability, T/C [7] 61.4% | viability, T/C [8] 27.9% | viability, T/C [9] 18.8% | viability, T/C [10] 19% | viability, T/C [11] 18.5% | viability, T/C [12] 14.6% | viability, T/C [13] 57% | viability, T/C [14] 37.1% | viability, T/C [15] 22.3% | viability, T/C [16] 17.7% | viability, T/C [17] 15.7% | viability, T/C [18] 12.9% | viability, T/C [19] 50.4% | viability, T/C [20] 30.6% | viability, T/C [21] 18.5% | viability, T/C [22] 20.1% | viability, T/C [23] 16.2% | viability, T/C [24] 13.8% | viability, T/C [25] 27.6% | viability, T/C [26] 20.5% | viability, T/C [27] 19.6% | viability, T/C [28] 17.4% | viability, T/C [29] 16.8% | viability, T/C [30] 13.1%
7.49: pIC50 (second compound 1 µM)
7.33: pIC50 (second compound 0.1 µM) | pIC50 (second compound 0.316 µM)

Cc1cccc(N(C)C(=O)C2C(O)CCN2c2nc(C)cc(C(F)(F)F)c2C#N)c1 (stereo unspecified) + CN(C)c1ccc(Nc2c3ccc(NC(=O)CCN4CCCC4)cc3nc3cc(NC(=O)CCN4CCCC4)ccc23)cc1
active: viability, T/C [31] 7.75% | viability, T/C [32] 6.99% | viability, T/C [33] 4.7% | viability, T/C [34] 4.67% | viability, T/C [35] 2.93% | viability, T/C [36] 0.73%
inactive: viability, T/C [1] 78% | viability, T/C [2] 78.9% | viability, T/C [3] 97.2% | viability, T/C [4] 102% | viability, T/C [5] 92.1% | viability, T/C [6] 86% | viability, T/C [7] 105% | viability, T/C [8] 73.6% | viability, T/C [9] 89.7% | viability, T/C [10] 92.8% | viability, T/C [11] 92.8% | viability, T/C [12] 82.9% | viability, T/C [13] 80.6% | viability, T/C [14] 79.7% | viability, T/C [15] 91.3% | viability, T/C [16] 88.5% | viability, T/C [17] 96.9% | viability, T/C [18] 78.3% | viability, T/C [19] 78.1% | viability, T/C [20] 87.2% | viability, T/C [21] 78.6% | viability, T/C [22] 71.5% | viability, T/C [23] 76.4% | viability, T/C [24] 57.4% | viability, T/C [25] 34.9% | viability, T/C [26] 47.4% | viability, T/C [27] 45.8% | viability, T/C [28] 31.6% | viability, T/C [29] 30.1% | viability, T/C [30] 27.2%
> 7.50: pIC50 (second compound 3.16 µM) | pIC50 (second compound 10 µM)
< 5.00: pIC50 (second compound 0.0316 µM) | pIC50 (second compound 0.1 µM) | pIC50 (second compound 0.316 µM) | pIC50 (second compound 1 µM)

Cn1ncnc1[C@H]1c2n[nH]c(=O)c3cc(F)cc(c23)N[C@@H]1c1ccc(F)cc1 + CN(C)c1ccc(Nc2c3ccc(NC(=O)CCN4CCCC4)cc3nc3cc(NC(=O)CCN4CCCC4)ccc23)cc1
7.61: pIC50 (second compound 0.1 µM)
7.35: pIC50 (second compound 1 µM)
> 9.00: pIC50 (second compound 3.16 µM) | pIC50 (second compound 10 µM)
active: viability, T/C (second compound 10 µM, first compound 0.000999 µM) 7.06% | viability, T/C (second compound 10 µM, first compound 0.00316 µM) 7.39% | viability, T/C (second compound 10 µM, first compound 0.00999 µM) 6.25% | viability, T/C [31] 5.78% | viability, T/C (second compound 10 µM, first compound 0.0999 µM) 5.88% | viability, T/C [33] 4.9%
inactive: viability, T/C (second compound 0.0316 µM, first compound 0.000999 µM) 95.1% | viability, T/C (second compound 0.0316 µM, first compound 0.00316 µM) 78.8% | viability, T/C (second compound 0.0316 µM, first compound 0.00999 µM) 84.6% | viability, T/C [1] 50.4% | viability, T/C (second compound 0.0316 µM, first compound 0.0999 µM) 42.2% | viability, T/C [3] 29% | viability, T/C (second compound 0.1 µM, first compound 0.000999 µM) 102% | viability, T/C (second compound 0.1 µM, first compound 0.00316 µM) 73% | viability, T/C (second compound 0.1 µM, first compound 0.00999 µM) 56.1% | viability, T/C [7] 51.4% | viability, T/C (second compound 0.1 µM, first compound 0.0999 µM) 46.7% | viability, T/C [9] 23% | viability, T/C (second compound 0.316 µM, first compound 0.000999 µM) 81.9% | viability, T/C (second compound 0.316 µM, first compound 0.00316 µM) 63.7% | viability, T/C (second compound 0.316 µM, first compound 0.00999 µM) 59.3% | viability, T/C [13] 49.7% | viability, T/C (second compound 0.316 µM, first compound 0.0999 µM) 48.6% | viability, T/C [15] 37.8% | viability, T/C (second compound 1 µM, first compound 0.000999 µM) 63.2% | viability, T/C (second compound 1 µM, first compound 0.00316 µM) 63.6% | viability, T/C (second compound 1 µM, first compound 0.00999 µM) 61.2% | viability, T/C [19] 52.1% | viability, T/C (second compound 1 µM, first compound 0.0999 µM) 40.2% | viability, T/C [21] 38.2% | viability, T/C (second compound 3.16 µM, first compound 0.000999 µM) 42.7% | viability, T/C (second compound 3.16 µM, first compound 0.00316 µM) 41.5% | viability, T/C (second compound 3.16 µM, first compound 0.00999 µM) 33.8% | viability, T/C [25] 31.4% | viability, T/C (second compound 3.16 µM, first compound 0.0999 µM) 25.1% | viability, T/C [27] 24.9%
7.46: pIC50 (second compound 0.316 µM)
7.37: pIC50 (second compound 0.0316 µM)
